Assay results as given in patent publication US8076338B2, “Kinase modulators and methods of use” (Exelixis, Inc., priority 2004, dated 2011).
Where two headings read alike, the source gives them in different places.

Key:
AktK = AktK (Homo sapiens, UniProt P31749); assay: Luciferase-coupled chemiluminescence kinase assay (ATP consumption); assay type: biochemical; settings: read-out: AKT-1 IC50
Outline: (§1)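 Activity is read as ATP depletion: luciferase-luciferin reagent added after a 3 h ambient-temperature kinase reaction, with total ATP use limited to 25-60%. Before ATP addition, 2.5-5 nM kinase and compound were preincubated 30 min in Tris pH 7.5/MgCl2/TX-100/DTT buffer; […].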

p70S6K = p70S6K (Homo sapiens, UniProt P23443); assay: as above; assay type: biochemical
p70S6K, sequence (P23443 whole entry): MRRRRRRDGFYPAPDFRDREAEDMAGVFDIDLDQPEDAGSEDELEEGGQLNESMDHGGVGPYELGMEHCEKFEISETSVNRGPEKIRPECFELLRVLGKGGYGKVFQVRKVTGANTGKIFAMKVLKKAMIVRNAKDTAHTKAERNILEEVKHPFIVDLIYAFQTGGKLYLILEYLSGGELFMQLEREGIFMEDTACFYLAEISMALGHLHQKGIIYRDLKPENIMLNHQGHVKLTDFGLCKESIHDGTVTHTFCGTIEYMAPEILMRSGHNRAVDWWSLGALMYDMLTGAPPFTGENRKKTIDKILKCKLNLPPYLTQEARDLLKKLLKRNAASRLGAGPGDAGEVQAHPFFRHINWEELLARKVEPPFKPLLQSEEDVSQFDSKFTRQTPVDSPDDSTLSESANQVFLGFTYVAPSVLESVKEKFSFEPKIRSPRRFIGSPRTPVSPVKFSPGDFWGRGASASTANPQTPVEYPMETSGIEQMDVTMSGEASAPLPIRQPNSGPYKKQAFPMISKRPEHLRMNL
Outline: as §1

AktK, sequence (P31749 whole entry): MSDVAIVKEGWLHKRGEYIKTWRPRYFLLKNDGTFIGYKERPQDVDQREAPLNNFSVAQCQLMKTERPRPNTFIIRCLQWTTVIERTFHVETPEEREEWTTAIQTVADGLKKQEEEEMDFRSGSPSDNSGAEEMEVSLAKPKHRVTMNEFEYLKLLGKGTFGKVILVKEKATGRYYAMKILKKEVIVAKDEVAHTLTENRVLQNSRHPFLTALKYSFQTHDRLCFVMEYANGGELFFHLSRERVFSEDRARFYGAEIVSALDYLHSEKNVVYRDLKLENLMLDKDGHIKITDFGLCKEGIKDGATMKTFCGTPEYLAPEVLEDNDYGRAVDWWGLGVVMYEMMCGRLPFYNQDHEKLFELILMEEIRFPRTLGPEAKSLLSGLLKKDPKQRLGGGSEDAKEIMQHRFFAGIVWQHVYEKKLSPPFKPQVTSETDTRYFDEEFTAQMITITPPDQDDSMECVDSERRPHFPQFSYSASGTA

SMILES	IC50 (AktK) [nM]	IC50 (p70S6K) [nM]	IC50 (AktK; Table 1, class symbols per key) [nM]	IC50 (p70S6K; Table 1, class symbols per key) [nM]
Clc1cccc(N2CCN(c3ncnc4[nH]ccc34)CC2)c1 [Entry 296, 4-[4-(3-chlorophenyl)piperazin-1-yl]-7H-pyrrolo[2,3-d]pyrimidine]	1000 to 10000	100 to 1000		
CCc1n[nH]c2ncnc(N3CCN(c4cccc(OC)c4C)CC3)c12 [Entry 145, 3-ethyl-4-{4-[2-methyl-3-(methyloxy)phenyl]piper-azin-1-yl}-1H-pyrazolo[3,4-d]pyrimidine]			≥ 10000	< 100
CCc1n[nH]c2ncnc(N3CCN(c4cc(OCC(C)C)cc(NCCN5CCCC5)c4C)CC3)c12 [Entry 172, 3-[4-(3-ethyl-1H-pyrazolo[3,4-d]pyrimidin-4-yl)piperazin-1-yl]-2-methyl-5-[(2-methyl-propyl)oxy]-N-(2-pyrrolidin-1-ylethyl)aniline]			< 100	< 100
Cc1c(NCCN2CCCC2)cc(C#Cc2ccccc2)cc1N1CCN(c2ncnc3[nH]nc(Br)c23)CC1 [Entry 235, 3-[4-(3-bromo-1H-pyrazolo[3,4-d]pyrimidin-4-yl)piperazin-1-yl]-2-methyl-5-(phenylethynyl)-N-(2-pyrrolidin-1-ylethyl)aniline]			100 to 1000	< 100

Continued, in another order:

IC50 (AktK) [nM]	IC50 (p70S6K) [nM]	SMILES	IC50 (AktK; Table 1, class symbols per key) [nM]	IC50 (p70S6K; Table 1, class symbols per key) [nM]
100 to 1000	< 100	CCc1n[nH]c2ncnc(N3CCN(c4cc(Cl)cc(CCCN(CC)CC)c4C)CC3)c12 [Entry 402, 3-{5-chloro-3-[4-(3-ethyl-1H-pyrazolo[3,4-d]pyrimidin-4-yl)piperazin-1-yl]-2-methylphenyl}-N,N-diethylpropan-1-amine]		
100 to 1000	< 100	CCc1n[nH]c2ncnc(N3CCN(c4cc(Cl)cc(NCCN(C)C)c4C)CC3)c12 [Entry 386, N′-{5-chloro-3-[4-(3-ethyl-1H-pyrazolo[3,4-d]pyrimidin-4-yl)piperazin-1-yl]-2-methylphenyl}-N,N-dimethylethane-1,2-diamine]		
